Laboratory results published in the supplement of paper PMC12463676, “Small-molecule dissolution of stress granules by redox modulation benefits ALS models” (Nature Chemical Biology, 2025).

Experiments:
[1] = compound: O=[As]([O-])(O)O.[K+] [potassium arsenate]; experiment: thermal stability z-score vs DMSO; higher = more thermally stabilized by treatment; settings: HeLa; arsenate concentration 1 mM
Description: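 Cellular thermal proteome profiling in HeLa cells treated with 1 mM arsenate for 1 h (DMSO pretreatment), heated to ten temperatures (37-66.3 °C). Soluble protein was quantified by TMT mass spectrometry relative to DMSO controls; the thermal stability score was transformed to a z-score; mean of n = 3 experiments.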

[2] = compound: NC(=O)CCCCC1CCSS1 [lipoamide]; experiment: as above; settings: HeLa, lipoamide concentration 100 µM
Description: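 Cellular thermal proteome profiling in HeLa cells. Cells were treated with 100 µM lipoamide for 1 h, with or without 1 mM arsenate for a further 1 h, then heated to ten temperatures (37-66.3 °C), and soluble protein was quantified by TMT mass spectrometry relative to 0.1% DMSO controls. The thermal stability score (sum of log2 fold changes minus the abundance score) was transformed to a z-score; mean of n = 3 experiments.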

[3] = arsenate co-treatment: 1 mM arsenate 1 h
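Also: each temperature applied for 3 min, abundance score taken as mean log2 fold change at the two lowest temperatures, z-score obtained by mean subtraction and division by SD.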

Chain of UniProt Q9P0L0 (Q9P0L0 whole entry): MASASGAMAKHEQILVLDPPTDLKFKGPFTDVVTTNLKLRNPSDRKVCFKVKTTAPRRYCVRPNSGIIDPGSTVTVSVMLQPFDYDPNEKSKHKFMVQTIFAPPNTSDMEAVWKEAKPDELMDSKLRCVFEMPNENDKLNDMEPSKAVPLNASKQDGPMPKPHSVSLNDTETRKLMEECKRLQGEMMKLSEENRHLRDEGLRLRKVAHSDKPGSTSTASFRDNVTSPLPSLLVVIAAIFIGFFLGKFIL
Chain of UniProt Q9NR33 (Q9NR33 whole entry): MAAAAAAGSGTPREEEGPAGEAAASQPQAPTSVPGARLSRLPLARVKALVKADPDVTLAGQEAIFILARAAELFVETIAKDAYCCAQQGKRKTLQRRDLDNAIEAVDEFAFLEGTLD
Chain of UniProt Q9NNW5 (Q9NNW5 whole entry): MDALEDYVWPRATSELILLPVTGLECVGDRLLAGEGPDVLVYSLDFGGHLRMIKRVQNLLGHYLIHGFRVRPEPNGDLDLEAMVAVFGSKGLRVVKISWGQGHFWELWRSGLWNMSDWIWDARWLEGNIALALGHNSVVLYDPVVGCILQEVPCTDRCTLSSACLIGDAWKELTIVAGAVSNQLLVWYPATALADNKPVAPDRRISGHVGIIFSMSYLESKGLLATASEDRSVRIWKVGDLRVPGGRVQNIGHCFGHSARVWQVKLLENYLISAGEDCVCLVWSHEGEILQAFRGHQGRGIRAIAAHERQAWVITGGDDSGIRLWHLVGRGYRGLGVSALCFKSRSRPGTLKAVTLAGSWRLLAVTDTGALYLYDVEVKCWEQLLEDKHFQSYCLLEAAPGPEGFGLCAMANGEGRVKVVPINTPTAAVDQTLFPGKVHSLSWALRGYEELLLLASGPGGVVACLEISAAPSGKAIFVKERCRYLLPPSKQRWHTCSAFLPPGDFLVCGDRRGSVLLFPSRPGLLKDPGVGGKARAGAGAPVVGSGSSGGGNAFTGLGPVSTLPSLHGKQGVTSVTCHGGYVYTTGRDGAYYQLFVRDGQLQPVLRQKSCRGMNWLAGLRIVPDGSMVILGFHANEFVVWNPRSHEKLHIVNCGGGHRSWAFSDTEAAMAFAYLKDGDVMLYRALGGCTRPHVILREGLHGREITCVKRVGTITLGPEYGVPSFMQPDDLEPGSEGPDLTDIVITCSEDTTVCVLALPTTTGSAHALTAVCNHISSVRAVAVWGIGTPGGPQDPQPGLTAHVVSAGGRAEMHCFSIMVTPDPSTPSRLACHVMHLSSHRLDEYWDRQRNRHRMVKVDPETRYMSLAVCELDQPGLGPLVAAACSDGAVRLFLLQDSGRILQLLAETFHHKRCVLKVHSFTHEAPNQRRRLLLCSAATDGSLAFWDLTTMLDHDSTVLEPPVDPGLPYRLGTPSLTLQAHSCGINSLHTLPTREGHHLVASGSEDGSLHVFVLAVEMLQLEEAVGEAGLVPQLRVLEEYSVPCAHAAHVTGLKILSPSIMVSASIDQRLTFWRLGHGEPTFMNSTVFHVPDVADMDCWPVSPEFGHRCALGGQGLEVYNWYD
Chain of UniProt P07919 (P07919 whole entry): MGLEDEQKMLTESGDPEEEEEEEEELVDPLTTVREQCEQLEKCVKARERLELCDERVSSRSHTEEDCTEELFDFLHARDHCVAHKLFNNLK
Chain of UniProt Q9GZT6 (Q9GZT6 whole entry): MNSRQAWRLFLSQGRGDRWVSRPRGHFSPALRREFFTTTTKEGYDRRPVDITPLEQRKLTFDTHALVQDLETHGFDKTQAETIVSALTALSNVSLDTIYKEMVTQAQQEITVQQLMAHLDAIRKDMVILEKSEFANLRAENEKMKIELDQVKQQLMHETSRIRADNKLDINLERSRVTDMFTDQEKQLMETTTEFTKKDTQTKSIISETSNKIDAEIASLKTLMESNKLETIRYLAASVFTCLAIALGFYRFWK
Chain of UniProt P50454 (P50454 whole entry): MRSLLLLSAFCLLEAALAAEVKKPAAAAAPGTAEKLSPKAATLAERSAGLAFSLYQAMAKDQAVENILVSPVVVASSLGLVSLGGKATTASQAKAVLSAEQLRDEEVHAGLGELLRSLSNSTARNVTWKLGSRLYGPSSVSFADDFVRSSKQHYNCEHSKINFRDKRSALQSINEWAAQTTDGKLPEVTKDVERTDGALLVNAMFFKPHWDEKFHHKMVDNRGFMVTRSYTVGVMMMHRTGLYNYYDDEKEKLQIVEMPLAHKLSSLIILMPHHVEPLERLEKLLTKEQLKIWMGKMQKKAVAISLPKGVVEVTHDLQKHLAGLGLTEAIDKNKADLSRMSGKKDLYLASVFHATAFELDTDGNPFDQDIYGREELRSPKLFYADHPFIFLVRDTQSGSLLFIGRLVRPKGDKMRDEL
Chain of UniProt Q92530 (Q92530 whole entry): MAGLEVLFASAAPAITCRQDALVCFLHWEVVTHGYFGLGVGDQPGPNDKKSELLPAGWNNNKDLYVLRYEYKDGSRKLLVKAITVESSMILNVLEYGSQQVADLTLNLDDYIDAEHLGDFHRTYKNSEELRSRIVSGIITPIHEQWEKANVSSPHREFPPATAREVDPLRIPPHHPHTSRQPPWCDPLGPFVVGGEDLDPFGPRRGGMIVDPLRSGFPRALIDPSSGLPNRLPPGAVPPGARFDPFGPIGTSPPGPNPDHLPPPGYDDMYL
Chain of UniProt P46019 (P46019 whole entry): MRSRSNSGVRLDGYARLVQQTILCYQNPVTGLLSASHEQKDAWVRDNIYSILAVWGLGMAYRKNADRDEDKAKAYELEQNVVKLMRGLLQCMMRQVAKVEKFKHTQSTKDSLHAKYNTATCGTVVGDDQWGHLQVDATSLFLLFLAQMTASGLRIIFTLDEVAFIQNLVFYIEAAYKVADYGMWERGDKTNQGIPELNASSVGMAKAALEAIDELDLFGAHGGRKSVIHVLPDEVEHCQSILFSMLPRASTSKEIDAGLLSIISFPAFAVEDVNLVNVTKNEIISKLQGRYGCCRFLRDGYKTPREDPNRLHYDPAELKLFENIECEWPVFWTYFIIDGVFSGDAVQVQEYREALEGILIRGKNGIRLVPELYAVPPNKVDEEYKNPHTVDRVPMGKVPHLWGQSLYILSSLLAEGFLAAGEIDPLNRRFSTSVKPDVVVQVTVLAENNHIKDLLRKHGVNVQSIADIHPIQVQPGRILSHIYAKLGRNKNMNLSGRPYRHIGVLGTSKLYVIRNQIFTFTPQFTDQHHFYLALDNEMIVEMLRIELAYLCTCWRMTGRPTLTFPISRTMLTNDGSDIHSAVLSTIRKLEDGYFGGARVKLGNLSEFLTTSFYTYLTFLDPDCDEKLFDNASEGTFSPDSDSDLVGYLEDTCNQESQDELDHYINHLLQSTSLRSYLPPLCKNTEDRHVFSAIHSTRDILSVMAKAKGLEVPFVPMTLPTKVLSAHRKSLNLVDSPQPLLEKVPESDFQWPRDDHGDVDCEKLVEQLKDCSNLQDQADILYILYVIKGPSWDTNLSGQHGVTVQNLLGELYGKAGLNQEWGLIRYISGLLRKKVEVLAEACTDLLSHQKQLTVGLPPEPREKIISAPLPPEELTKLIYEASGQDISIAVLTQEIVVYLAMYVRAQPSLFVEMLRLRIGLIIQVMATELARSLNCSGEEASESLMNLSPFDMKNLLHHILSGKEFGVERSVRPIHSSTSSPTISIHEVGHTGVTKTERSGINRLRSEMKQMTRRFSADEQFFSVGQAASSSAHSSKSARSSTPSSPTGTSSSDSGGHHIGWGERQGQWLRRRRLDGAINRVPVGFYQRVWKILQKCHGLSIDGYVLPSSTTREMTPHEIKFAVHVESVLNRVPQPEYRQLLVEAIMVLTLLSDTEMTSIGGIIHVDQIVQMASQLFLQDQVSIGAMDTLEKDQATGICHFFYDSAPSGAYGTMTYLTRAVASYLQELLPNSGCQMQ
Chain of UniProt O75396 (O75396 whole entry): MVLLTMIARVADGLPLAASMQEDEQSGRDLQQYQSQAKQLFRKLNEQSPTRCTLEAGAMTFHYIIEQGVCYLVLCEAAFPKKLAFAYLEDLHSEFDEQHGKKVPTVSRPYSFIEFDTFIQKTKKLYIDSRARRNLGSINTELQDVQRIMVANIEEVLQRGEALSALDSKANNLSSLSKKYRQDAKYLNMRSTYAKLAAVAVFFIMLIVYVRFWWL
Chain of UniProt Q9HCJ3 (Q9HCJ3 whole entry): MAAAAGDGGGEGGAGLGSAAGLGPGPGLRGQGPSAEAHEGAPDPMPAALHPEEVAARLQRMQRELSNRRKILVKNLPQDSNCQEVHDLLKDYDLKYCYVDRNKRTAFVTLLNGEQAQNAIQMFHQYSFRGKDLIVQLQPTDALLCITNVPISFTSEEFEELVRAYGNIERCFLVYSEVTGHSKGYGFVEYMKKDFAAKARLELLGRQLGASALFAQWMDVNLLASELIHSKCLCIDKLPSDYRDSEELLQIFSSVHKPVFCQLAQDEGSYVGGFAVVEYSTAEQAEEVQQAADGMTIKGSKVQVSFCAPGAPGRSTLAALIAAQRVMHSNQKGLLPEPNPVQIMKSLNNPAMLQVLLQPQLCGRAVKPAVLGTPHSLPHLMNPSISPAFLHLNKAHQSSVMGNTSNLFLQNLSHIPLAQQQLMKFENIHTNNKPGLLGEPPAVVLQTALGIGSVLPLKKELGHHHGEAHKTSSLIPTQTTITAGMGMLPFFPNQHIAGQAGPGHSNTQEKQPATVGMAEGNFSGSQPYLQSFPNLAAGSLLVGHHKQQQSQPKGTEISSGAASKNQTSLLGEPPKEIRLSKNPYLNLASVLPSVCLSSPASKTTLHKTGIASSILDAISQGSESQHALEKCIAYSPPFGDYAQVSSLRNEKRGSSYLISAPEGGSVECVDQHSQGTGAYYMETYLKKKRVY
Chain of UniProt Q9H7C9 (Q9H7C9 whole entry): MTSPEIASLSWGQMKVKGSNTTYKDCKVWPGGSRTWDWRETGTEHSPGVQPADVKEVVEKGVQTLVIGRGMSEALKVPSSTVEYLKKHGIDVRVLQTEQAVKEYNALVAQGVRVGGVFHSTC
Chain of UniProt O75920 (O75920 whole entry): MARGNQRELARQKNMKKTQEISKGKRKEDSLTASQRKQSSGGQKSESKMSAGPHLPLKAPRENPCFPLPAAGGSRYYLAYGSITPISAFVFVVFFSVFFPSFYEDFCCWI

Target | thermal stability z-score [1] | thermal stability z-score [2, 3] | thermal stability z-score ([2]; arsenate co-treatment: none)
TNS2 (UniProt Q63HR2) | -0.101 | -0.0104 | -0.0152
POLR3G (UniProt O15318) | -0.356 | -0.603 | -0.505
VPS13C (UniProt Q709C8) | -0.213 | 0.038 | -0.033
TMEM43 (UniProt Q9BTV4) | 0.701 | -3.42 | -3.08
ZMPSTE24 (UniProt O75844) | 0.325 | 0.105 | -0.234
ULK3 (UniProt Q6PHR2) | -0.285 | -0.27 | -0.197
AGFG1 (UniProt P52594) | -0.387 | -0.348 | -0.424
PATL1 (UniProt Q86TB9) | -0.0875 | -0.613 | -0.623
RP2 (UniProt O75695) | -0.738 | 0.38 | 1.49
IGSF8 (UniProt Q969P0) | 0.893 | 0.26 | 0.326
WDR6 (UniProt Q9NNW5) | 0.0479 | -0.00677 | 0.325
VAPA (UniProt Q9P0L0) | -1.14 | 0.25 | -0.0574
CCDC90B (UniProt Q9GZT6) | 0.136 | 0.364 | 0.229
RNPS1 (UniProt Q15287) | 0.528 | 1.23 | 0.438
GSTCD (UniProt Q8NEC7) | -0.0694 | 0.682 | 0.492
SERPINH1 (UniProt P50454) | 0.567 | -3.31 | -2.2
IDE (UniProt P14735) | 1.24 | 0.708 | 0.717
GRAMD3 (UniProt Q96HH9) | -0.0476 | 0.155 | 0.0561
COPS6 (UniProt Q7L5N1) | -0.236 | 0.0852 | -0.522
FOXRED2 (UniProt Q8IWF2) | 0.897 | -1.43 | -1.2
SEC22B (UniProt O75396) | -0.0449 | -0.614 | -0.0571
DPH1 (UniProt Q9BZG8) | -1.29 | -0.233 | -0.119
MRPL45 (UniProt Q9BRJ2) | 0.214 | -0.181 | 0.0671
AKAP13 (UniProt Q12802) | 0.667 | -0.125 | -0.1

Target | thermal stability z-score [1] | thermal stability z-score [2, 3] | thermal stability z-score ([2]; arsenate co-treatment: none)
UBE2G2 (UniProt P60604) | 0.643 | 0.327 | 0.813
YDJC (UniProt A8MPS7) | -1.04 | -0.851 | -1.66
ARPP19 (UniProt P56211) | -0.359 | 0.84 | 0.316
UQCRH (UniProt P07919) | 0.58 | 1.35 | 1.45
MRPL16 (UniProt Q9NX20) | -0.974 | -0.269 | -0.373
BTF3L4 (UniProt Q96K17) | -0.154 | 0.212 | 0.17
CNOT11 (UniProt Q9UKZ1) | 0.0729 | -0.0705 | 0.0824
PSMF1 (UniProt Q92530) | -0.0444 | -0.319 | -0.0828
ARHGAP29 (UniProt Q52LW3) | -1.28 | -0.215 | -0.998
GTF3C5 (UniProt Q9Y5Q8) | -0.367 | 0.0669 | 0.0127
BCAT2 (UniProt O15382) | 1.1 | 0.516 | 0.0921
C18ORF8 (UniProt Q96DM3) | -0.638 | 0.827 | 0.41
ACSF2 (UniProt Q96CM8) | -0.301 | -0.634 | -0.524
TPD52L1 (UniProt Q16890) | 0.237 | 0.471 | 0.545
HMGCL (UniProt P35914) | 5.41 | 1.01 | 0.651
ALCAM (UniProt Q13740) | 0.534 | 0.558 | 0.931
KRAS (UniProt P01116) | 0.184 | 0.168 | 0.186
ARFGAP1 (UniProt Q8N6T3) | 0.357 | -0.303 | 0.304
LRRC8E (UniProt Q6NSJ5) | -0.237 | 0.43 | -0.139
POLA2 (UniProt Q14181) | -0.183 | -0.305 | -0.0588
SERF1A (UniProt O75920) | -0.297 | -0.0837 | 0.743
MAP3K6 (UniProt O95382) | -0.0305 | 0.0331 | -0.0259
CACYBP (UniProt Q9HB71) | 0.37 | 0.276 | 0.0201
ARPC3 (UniProt O15145) | -0.254 | 0.0284 | 0.0195

Target | thermal stability z-score [1] | thermal stability z-score [2, 3] | thermal stability z-score ([2]; arsenate co-treatment: none)
KIN (UniProt O60870) | -0.174 | -0.0116 | 0.0339
AMBRA1 (UniProt Q9C0C7) | 0.446 | 0.0433 | 0.0956
GEMIN4 (UniProt P57678) | -0.0793 | -0.347 | -0.228
FRA10AC1 (UniProt Q70Z53) | 0.108 | 0.081 | 0.0654
POLE4 (UniProt Q9NR33) | -1.07 | 0.919 | 0.928
C12ORF45 (UniProt Q8N5I9) | 0.591 | 0.42 | 0.511
TCEAL4 (UniProt Q96EI5) | -0.306 | 0.347 | 0.201
GINS2 (UniProt Q9Y248) | 0.0793 | -0.0167 | 0.00771
ANAPC10 (UniProt Q9UM13) | -0.183 | 0.0276 | -0.149
PHKA2 (UniProt P46019) | -0.0062 | -0.174 | 0.096
MECP2 (UniProt P51608) | -0.147 | -0.157 | -0.207
NPTN (UniProt Q9Y639) | 0.798 | 0.275 | -0.0241
AAMDC (UniProt Q9H7C9) | 0.207 | 1.03 | 0.608
TRAPPC12 (UniProt Q8WVT3) | 0.0727 | -0.757 | -1.04
PITX1 (UniProt P78337) | 0.027 | 0.0195 | -0.0855
STRN (UniProt O43815) | 0.345 | 0.402 | 0.602
CHUK (UniProt O15111) | 0.578 | 0.887 | 0.727
FBXO3 (UniProt Q9UK99) | -1.06 | -0.185 | -0.251
LHPP (UniProt Q9H008) | 0.146 | 1.03 | 0.991
RAVER2 (UniProt Q9HCJ3) | -0.0887 | 0.204 | 0.253
TMEM192 (UniProt Q8IY95) | -0.137 | -0.861 | 0.064
UBE2E3 (UniProt Q969T4) | 1.92 | 0.196 | -0.0847
CACTIN (UniProt Q8WUQ7) | -0.0248 | -0.265 | -0.163
